Settings: Liquid, Brillouin Light Scattering

CC(C)OC(C)C [diisopropyl ether]
Settings | speed of sound [m/s]
302.38 K, 10000 kPa | 1087.1
302.39 K, 4000 kPa | 1011.9
302.48 K, 5500 kPa | 1029.7
302.8 K, 8500 kPa | 1052.4
302.91 K, 2500 kPa | 1002.7
302.96 K, 1000 kPa | 986.08
303.07 K, 7000 kPa | 1037.8
307.45 K, 4000 kPa | 987.23
307.61 K, 10000 kPa | 1066.1
307.86 K, 5500 kPa | 1009.4
307.87 K, 8500 kPa | 1038.9
308 K, 1000 kPa | 965.01
308.01 K, 7000 kPa | 1020.5
308.28 K, 2500 kPa | 974.68
312.8 K, 10000 kPa | 1051
312.81 K, 8500 kPa | 1010.4
312.88 K, 7000 kPa | 995.2
312.91 K, 2500 kPa | 961.97
312.92 K, 5500 kPa | 979.14
313.05 K, 1000 kPa | 943.07
313.14 K, 4000 kPa | 969.4
317.72 K, 10000 kPa | 1030.2
318.01 K, 5500 kPa | 968.08
318.11 K, 1000 kPa | 924.03
318.13 K, 8500 kPa | 996.14
318.14 K, 2500 kPa | 928.92
318.38 K, 7000 kPa | 974.91
318.49 K, 4000 kPa | 951.1
322.82 K, 10000 kPa | 1007.1
323.15 K, 7000 kPa | 960.56
323.3 K, 8500 kPa | 972.88
323.31 K, 2500 kPa | 912.04
323.5 K, 5500 kPa | 943.6
323.62 K, 1000 kPa | 901.5
323.71 K, 4000 kPa | 924.8
327.56 K, 10000 kPa | 994.72
327.75 K, 8500 kPa | 964.89
327.97 K, 1000 kPa | 881.1
328.08 K, 2500 kPa | 887.66
328.1 K, 4000 kPa | 901.06
328.13 K, 7000 kPa | 936.62
328.17 K, 5500 kPa | 923.15
332.93 K, 10000 kPa | 963.31
332.94 K, 2500 kPa | 869.98
333.01 K, 7000 kPa | 920.95
333.08 K, 1000 kPa | 855
333.25 K, 8500 kPa | 943.92
333.31 K, 4000 kPa | 888.08
333.57 K, 5500 kPa | 897.12
337.63 K, 5500 kPa | 882.64
337.69 K, 1000 kPa | 846.25
337.75 K, 2500 kPa | 857.76
337.85 K, 10000 kPa | 946.87
337.89 K, 8500 kPa | 917.48
337.93 K, 4000 kPa | 867.64
338.11 K, 7000 kPa | 896.43
343.33 K, 1000 kPa | 819.28
343.57 K, 8500 kPa | 904.65
343.67 K, 4000 kPa | 845.53
343.79 K, 7000 kPa | 878.38
343.82 K, 2500 kPa | 827.84
343.88 K, 10000 kPa | 923.89
343.97 K, 5500 kPa | 864.56
347.31 K, 10000 kPa | 915.04
347.41 K, 2500 kPa | 807.03
347.59 K, 1000 kPa | 802.59
347.69 K, 4000 kPa | 832.86
347.76 K, 8500 kPa | 887.44
347.81 K, 5500 kPa | 843.4
347.81 K, 7000 kPa | 867.06
352.94 K, 4000 kPa | 804.7
353.38 K, 8500 kPa | 862.02
353.45 K, 1000 kPa | 775.82
353.59 K, 2500 kPa | 792.6
353.6 K, 5500 kPa | 819.82
353.71 K, 7000 kPa | 845.61
353.81 K, 10000 kPa | 893.76
358.06 K, 10000 kPa | 870.54
358.52 K, 8500 kPa | 846.91
358.55 K, 5500 kPa | 807.15
358.76 K, 1000 kPa | 755.17
358.93 K, 2500 kPa | 760.2
358.96 K, 4000 kPa | 782.98
359.03 K, 7000 kPa | 821.85
362.67 K, 1000 kPa | 737.96
362.78 K, 5500 kPa | 786.13
362.9 K, 10000 kPa | 855.96
362.95 K, 8500 kPa | 828.91
363.08 K, 7000 kPa | 809.07
363.21 K, 2500 kPa | 747.41
363.41 K, 4000 kPa | 767.15
367.56 K, 7000 kPa | 793.16
367.57 K, 5500 kPa | 769.09

Settings | speed of sound [m/s]
303.08 K | 986.38
318.27 K | 915.66
333.62 K | 852.5
347.96 K | 790.74
362.87 K | 731.21

From the NIST ThermoML archive (doi:10.1016/j.jct.2016.09.005)
